Results as given in ChEMBL document CHEMBL1141668, “Synthesis and biological activity of imidazopyridine anticoccidial agents: Part II” (Eur J Med Chem, 2008).
pIC50: −log10 of the molar value.

How the values were obtained:
Eimeria acervulina [1] = test: Anticoccidial activity against Eimeria acervulina in chickens assessed as reduction of oocysts at 12.5 ppm measured after 8 days by ExMAC assay relative to untreated control; assay type: functional; parameters: scale not given: the % may be the effect or the level left
[2] = target: cGMP-dependent protein kinase (Eimeria tenella, UniProt Q8MMZ8); test: Inhibition of Eimeria tenella cGMP-dependent protein kinase
Eimeria maxima [3] = test: Anticoccidial activity against Eimeria maxima in chickens assessed as reduction of oocysts at 12.5 ppm measured after 8 days by ExMAC assay relative to untreated control; assay type: functional; parameters: scale not given: the % may be the effect or the level left
Eimeria tenella [4] = test: Anticoccidial activity against Eimeria tenella in chickens assessed as reduction of oocysts at 12.5 ppm measured after 8 days by ExMAC assay relative to untreated control; assay type: functional; parameters: scale not given: the % may be the effect or the level left
Eimeria mitis [5] = test: Anticoccidial activity against Eimeria mitis in chickens assessed as reduction of oocysts at 12.5 ppm measured after 8 days by ExMAC assay relative to untreated control; assay type: functional; parameters: scale not given: the % may be the effect or the level left
Eimeria acervulina [6] = test: Anticoccidial activity against Eimeria acervulina in chickens assessed as reduction of oocysts at 25 ppm measured after 8 days by ExMAC assay relative to untreated control; assay type: functional; parameters: scale not given: the % may be the effect or the level left
Eimeria mitis [7] = test: Anticoccidial activity against Eimeria mitis in chickens assessed as reduction of oocysts at 25 ppm measured after 8 days by ExMAC assay relative to untreated control; assay type: functional; parameters: scale not given: the % may be the effect or the level left
Eimeria maxima [8] = test: Anticoccidial activity against Eimeria maxima in chickens assessed as reduction of oocysts at 25 ppm measured after 8 days by ExMAC assay relative to untreated control; assay type: functional; parameters: scale not given: the % may be the effect or the level left
Eimeria tenella [9] = test: Anticoccidial activity against Eimeria tenella in chickens assessed as reduction of oocysts at 25 ppm measured after 8 days by ExMAC assay relative to untreated control; assay type: functional; parameters: scale not given: the % may be the effect or the level left
Eimeria acervulina [10] = test: Anticoccidial activity against Eimeria acervulina in chickens assessed as reduction of oocysts at 6.25 ppm measured after 8 days by ExMAC assay relative to untreated control; assay type: functional; parameters: scale not given: the % may be the effect or the level left
Eimeria mitis [11] = test: Anticoccidial activity against Eimeria mitis in chickens assessed as reduction of oocysts at 6.25 ppm measured after 8 days by ExMAC assay relative to untreated control; assay type: functional; parameters: scale not given: the % may be the effect or the level left
Eimeria maxima [12] = test: Anticoccidial activity against Eimeria maxima in chickens assessed as reduction of oocysts at 6.25 ppm measured after 8 days by ExMAC assay relative to untreated control; assay type: functional; parameters: scale not given: the % may be the effect or the level left
Eimeria tenella [13] = test: Anticoccidial activity against Eimeria tenella in chickens assessed as reduction of oocysts at 6.25 ppm measured after 8 days by ExMAC assay relative to untreated control; assay type: functional; parameters: scale not given: the % may be the effect or the level left

Chain of cGMP-dependent protein kinase (Q8MMZ8 whole entry): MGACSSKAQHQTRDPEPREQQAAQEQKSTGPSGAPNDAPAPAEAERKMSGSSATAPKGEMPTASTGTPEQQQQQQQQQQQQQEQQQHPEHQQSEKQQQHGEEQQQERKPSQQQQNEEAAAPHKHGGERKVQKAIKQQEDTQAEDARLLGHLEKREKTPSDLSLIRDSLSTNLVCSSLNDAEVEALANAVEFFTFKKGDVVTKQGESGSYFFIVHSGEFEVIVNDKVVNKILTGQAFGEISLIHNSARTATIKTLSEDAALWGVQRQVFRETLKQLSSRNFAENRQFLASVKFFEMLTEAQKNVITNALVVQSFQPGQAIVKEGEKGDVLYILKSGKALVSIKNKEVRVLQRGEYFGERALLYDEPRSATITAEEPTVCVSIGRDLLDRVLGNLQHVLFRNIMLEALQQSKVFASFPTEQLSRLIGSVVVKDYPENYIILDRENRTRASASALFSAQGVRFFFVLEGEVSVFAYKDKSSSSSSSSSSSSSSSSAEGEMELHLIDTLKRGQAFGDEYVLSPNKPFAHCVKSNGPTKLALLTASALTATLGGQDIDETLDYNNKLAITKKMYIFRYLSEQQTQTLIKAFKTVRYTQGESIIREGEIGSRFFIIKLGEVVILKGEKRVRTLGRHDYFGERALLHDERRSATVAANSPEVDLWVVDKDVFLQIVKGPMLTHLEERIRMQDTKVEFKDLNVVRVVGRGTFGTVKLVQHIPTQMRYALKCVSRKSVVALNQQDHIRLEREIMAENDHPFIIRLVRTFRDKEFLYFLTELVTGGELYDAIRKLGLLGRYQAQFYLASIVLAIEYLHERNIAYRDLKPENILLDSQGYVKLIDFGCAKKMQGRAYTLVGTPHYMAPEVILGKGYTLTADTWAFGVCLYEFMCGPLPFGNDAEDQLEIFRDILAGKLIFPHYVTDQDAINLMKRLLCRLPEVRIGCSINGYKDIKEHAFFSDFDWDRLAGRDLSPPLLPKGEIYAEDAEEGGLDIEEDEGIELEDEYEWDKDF

Compound	pIC50 [2]	Activity (Eimeria acervulina [1])	Activity (Eimeria maxima [3])	Activity (Eimeria tenella [4])	Activity (Eimeria mitis [5])	Activity (Eimeria acervulina [6])	Activity (Eimeria mitis [7])	Activity (Eimeria maxima [8])	Activity (Eimeria tenella [9])	Activity (Eimeria acervulina [10])	Activity (Eimeria mitis [11])	Activity (Eimeria maxima [12])	Activity (Eimeria tenella [13])
C#CCN(C)Cc1ccn2c(-c3ccnc(N)n3)c(-c3ccc(F)cc3)nc2c1	9.19	<50%	<50%	<50%	<50%	–	–	–	–	–	–	–	–
CNC(=O)c1ccn2c(-c3ccnc(N)n3)c(-c3ccc(F)cc3)nc2c1	8.51	–	–	–	–	<50%	<50%	50%	<50%	–	–	–	–
CN(CC#N)Cc1ccn2c(-c3ccnc(N)n3)c(-c3ccc(F)cc3)nc2c1	8.88	–	–	–	–	80%	<50%	<50%	80%	–	–	–	–
CN1CCN(c2ccn3c(-c4ccnc(N)n4)c(-c4ccc(F)cc4)nc3c2)CC1	9.64	<50%	<50%	80%	50%	<50%	80%	100%	80%	<50%	50%	<50%	<50%
CN(C)C(=N)c1ccn2c(-c3ccnc(N)n3)c(-c3ccc(F)cc3)nc2c1	8.60	–	–	–	–	50%	<50%	<50%	<50%	–	–	–	–
CN(C)c1ccn2c(-c3ccnc(N)n3)c(-c3ccc(F)cc3)nc2c1	8.52	<50%	80%	50%	<50%	80%	<50%	80%	80%	<50%	<50%	<50%	<50%
CCN(CC)Cc1ccn2c(-c3ccnc(N)n3)c(-c3ccc(F)cc3)nc2c1	9.77	50%	80%	80%	<50%	50%	80%	80%	80%	<50%	50%	<50%	<50%
CN(C)CC(F)c1ccn2c(-c3ccnc(N)n3)c(-c3ccc(F)cc3)nc2c1 (stereo not given)	9.23	80%	100%	80%	50%	100%	100%	100%	100%	<50%	<50%	100%	80%
CN1CCN(Cc2ccn3c(-c4ccnc(N)n4)c(-c4ccc(F)cc4)nc3c2)CC1	8.66	<50%	<50%	<50%	<50%	<50%	80%	80%	80%	–	–	–	–
CCC(CN(C)C)c1ccn2c(-c3ccnc(N)n3)c(-c3ccc(F)cc3)nc2c1 (stereo not given)	9.40	–	–	–	–	<50%	<50%	100%	100%	–	–	–	–
CC(C)(CN)c1ccn2c(-c3ccnc(N)n3)c(-c3ccc(F)cc3)nc2c1	9.59	–	–	–	–	<50%	50%	<50%	50%	–	–	–	–
CN(C)CC(C)(C)c1ccn2c(-c3ccnc(N)n3)c(-c3ccc(F)cc3)nc2c1	9.70	80%	<50%	80%	<50%	80%	80%	<50%	100%	<50%	<50%	<50%	<50%
CN(C)CCCc1ccn2c(-c3ccnc(N)n3)c(-c3ccc(F)cc3)nc2c1	9.57	80%	<50%	80%	<50%	80%	80%	100%	80%	<50%	<50%	<50%	<50%
CC(C)(C)NCc1ccn2c(-c3ccnc(N)n3)c(-c3ccc(F)cc3)nc2c1	9.46	–	–	–	–	–	–	–	–	–	–	–	–
COCCN(C)Cc1ccn2c(-c3ccnc(N)n3)c(-c3ccc(F)cc3)nc2c1	9.59	<50%	<50%	<50%	<50%	–	–	–	–	–	–	–	–
CN(C)Cc1ccn2c(-c3ccnc(N)n3)c(-c3ccc(F)cc3)nc2c1	–	80%	80%	80%	80%	80%	80%	80%	80%	80%	<50%	<50%	80%
CCCCCCN1CCC(c2ccn3c(-c4ccnc(N)n4)c(-c4ccc(F)cc4)nc3c2)CC1	9.89	<50%	–	50%	<50%	–	–	–	–	–	–	–	–
CN(CCO)Cc1ccn2c(-c3ccnc(N)n3)c(-c3ccc(F)cc3)nc2c1	9.40	<50%	<50%	<50%	<50%	–	–	–	–	–	–	–	–

Further molecules by rising pIC50 [2], results first:

pIC50 [2]	Compound	Activity (Eimeria acervulina [1])	Activity (Eimeria maxima [3])	Activity (Eimeria tenella [4])	Activity (Eimeria mitis [5])	Activity (Eimeria acervulina [6])	Activity (Eimeria mitis [7])	Activity (Eimeria maxima [8])	Activity (Eimeria tenella [9])	Activity (Eimeria acervulina [10])	Activity (Eimeria mitis [11])	Activity (Eimeria maxima [12])	Activity (Eimeria tenella [13])
9.89	CCC(C)CN1CCC(c2ccn3c(-c4ccnc(N)n4)c(-c4ccc(F)cc4)nc3c2)CC1 (stereo not given)	80%	–	80%	<50%	–	–	–	–	–	–	–	–
9.92	CCCC(C)CN1CCC(c2ccn3c(-c4ccnc(N)n4)c(-c4ccc(F)cc4)nc3c2)CC1 (stereo not given)	<50%	–	80%	<50%	–	–	–	–	–	–	–	–
9.92	CC(C)CN1CCC(c2ccn3c(-c4ccnc(N)n4)c(-c4ccc(F)cc4)nc3c2)CC1	80%	100%	100%	80%	100%	80%	80%	80%	80%	<50%	<50%	50%
9.96	Nc1nccc(-c2c(-c3ccc(F)cc3)nc3cc(C4CCN(Cc5ccccc5)CC4)ccn23)n1	80%	80%	80%	<50%	<50%	<50%	100%	80%	<50%	<50%	80%	<50%
9.96	CC(C)(C)CCN1CCC(c2ccn3c(-c4ccnc(N)n4)c(-c4ccc(F)cc4)nc3c2)CC1	<50%	–	80%	<50%	–	–	–	–	–	–	–	–
10.02	Nc1nccc(-c2c(-c3ccc(F)cc3)nc3cc(C4CCN(CC5CC5)CC4)ccn23)n1	80%	80%	100%	80%	100%	80%	80%	100%	80%	80%	80%	80%
10.15	Nc1nccc(-c2c(-c3ccc(F)cc3)nc3cc(C4CCN(CCc5ccccc5)CC4)ccn23)n1	<50%	–	<50%	<50%	–	–	–	–	–	–	–	–
10.19	Nc1nccc(-c2c(-c3ccc(F)cc3)nc3cc(C4CCN(CCCO)CC4)ccn23)n1	50%	<50%	100%	<50%	80%	<50%	<50%	100%	50%	<50%	<50%	<50%
10.19	CCCC(c1ccn2c(-c3ccnc(N)n3)c(-c3ccc(F)cc3)nc2c1)N(C)C (stereo not given)	80%	<50%	<50%	<50%	100%	100%	100%	100%	80%	<50%	100%	<50%
10.34	Nc1nccc(-c2c(-c3ccc(F)cc3)nc3cc(C4CCNCC4)ccn23)n1	–	–	–	–	<50%	<50%	100%	<50%	–	–	–	–
